Experimental data reported in US7803769B2 (priority 2006, dated 2010).

Legend:
[1] = tested on: IL-2R on CD4+ T cells in human whole blood; type: cell-based
[2] = tested on: CD40L on CD4+ T cells in human whole blood; type: cell-based
[3] = tested on: IFNγ production from αCD3 and αCD28 antibody stimulated human PBMCs; type: cell-based
[4] = tested on: adoptive transfer EAE model of multiple sclerosis; settings: rat, in vivo, sc
[5] = tested on: IFNγ production from PMA and αCD3 antibody stimulated human PBMCs; type: cell-based
[6] = tested on: IL-2 production from αCD3 and αCD28 antibody stimulated human PBMCs; type: cell-based
[7] = tested on: thapsigargin-induced IFN-g production in human whole blood; type: cell-based
[8] = tested on: IL-2 production from PMA and αCD3 antibody stimulated human PBMCs; type: cell-based
[9] = rat, in vivo, iv
human Kv1.1 = target: T1, human Kv1.1 (Homo sapiens, UniProt Q09470); type: cell-based
T1 construct: expressed in transfected cells; host or cells: HEK293
T1 sequence (Q09470 whole entry): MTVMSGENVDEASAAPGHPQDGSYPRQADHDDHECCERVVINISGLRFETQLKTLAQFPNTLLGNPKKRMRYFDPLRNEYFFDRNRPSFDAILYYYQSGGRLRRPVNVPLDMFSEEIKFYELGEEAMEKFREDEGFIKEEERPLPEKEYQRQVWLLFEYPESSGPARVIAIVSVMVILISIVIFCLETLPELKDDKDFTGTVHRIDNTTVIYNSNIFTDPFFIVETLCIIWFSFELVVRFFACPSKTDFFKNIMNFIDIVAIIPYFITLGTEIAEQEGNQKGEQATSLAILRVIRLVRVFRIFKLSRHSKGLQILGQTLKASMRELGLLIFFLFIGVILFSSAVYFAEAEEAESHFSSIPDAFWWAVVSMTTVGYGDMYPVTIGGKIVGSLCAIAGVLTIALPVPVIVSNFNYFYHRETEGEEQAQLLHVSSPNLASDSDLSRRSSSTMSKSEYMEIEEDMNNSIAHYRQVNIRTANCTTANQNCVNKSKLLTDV

human Kv1.3 channel = human Kv1.3 channel (Homo sapiens, UniProt P22001); type: cell-based
human Kv1.3 channel, sequence (P22001 whole entry): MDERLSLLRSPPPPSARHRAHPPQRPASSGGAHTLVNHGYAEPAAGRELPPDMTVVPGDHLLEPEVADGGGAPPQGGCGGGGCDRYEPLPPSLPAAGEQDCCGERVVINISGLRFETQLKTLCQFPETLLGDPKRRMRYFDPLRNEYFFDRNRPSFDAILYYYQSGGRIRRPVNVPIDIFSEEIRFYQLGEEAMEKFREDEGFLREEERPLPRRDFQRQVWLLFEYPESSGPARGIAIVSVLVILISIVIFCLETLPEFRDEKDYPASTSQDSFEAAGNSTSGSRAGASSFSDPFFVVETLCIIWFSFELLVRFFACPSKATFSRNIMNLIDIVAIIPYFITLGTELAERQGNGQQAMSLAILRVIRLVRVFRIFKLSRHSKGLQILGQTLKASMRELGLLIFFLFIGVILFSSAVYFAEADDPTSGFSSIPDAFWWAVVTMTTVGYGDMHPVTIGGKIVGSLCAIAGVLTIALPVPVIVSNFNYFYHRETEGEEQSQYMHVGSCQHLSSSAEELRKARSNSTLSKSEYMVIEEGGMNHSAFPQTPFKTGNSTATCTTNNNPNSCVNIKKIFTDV

[10] = target: fixed HEK 293 cells stably transfected with human Kv1.3 (Homo sapiens, UniProt P22001); test: Whole cell immunoassay (ELISA) on fixed HEK 293 cells overexpressing Kv1.3; type: binding
fixed HEK 293 cells stably transfected with human Kv1.3, sequence (P22001 whole entry): as above
Protocol: Our peptibody reagent can be a useful and convenient tool for monitoring Kv1.3 channel expression in patients and have utility in diagnostic applications. The procedure shown in FIG. 34A and FIG. 34B follows.
FIG. 34A. A whole cell immunoassay was performed to show binding of intact Fc-L10-ShK[1-35] to Kv1.3 transfected HEK 293 cells (BioFocus plc, Cambridge, UK). Parent HEK 293 cells or HEK Kv1.3 cells were plated at 3×10e4 cells/well in poly-D-Lysine coated ninety-six well plates (#35-4461; Becton-Dickinson, Bedford, Mass.). Cells were fixed with formalin (Sigma HT50-1-1 Formalin solution, diluted 1:1 with PBS/0.5% BSA before use) by removing cell growth medium, adding 0.2 ml/well formalin solution and incubating at room temperature for 25 minutes and then washing one time with 100 μl/well of PBS/0.5% BSA. Wells were blocked by addition of 0.3 ml/well of BSA blocker (50-61-00; KPL 10% BSA Diluent/Blocking Solution, diluted 1:1 with PBS; KPL, Gaithersburg, Md.) followed by incubation at room temperature, with shaking, for 3 hr. Plates were washed 2 times with 1×KP Wash Buffer (50-63-00; KPL). […] Absorbance was read at 450 nm on a Molecular Devices SpectroMax 340 (Sunnyvale, Calif.).
FIG. 34B. […] Absorbances were read at 405 nm after stopping reactions by addition of 0.1 ml/well of 1% SDS.

[11] = tested on: T cell proliferation in human PBMCs; test: T cell proliferation (3H-thymidine incorporation) in anti-CD3/anti-CD28 stimulated human PBMCs; type: cell-based; settings: two normal donors
From the text: Inhibition of T cell proliferation following anti-CD3 and anti-CD28 antibody stimulation of PBMCs. PBMC's were previously isolated from normal human donor Leukophoresis packs, purified by density gradient centrifugation (Ficoll Hypaque), cryopreserved in CPZ Cryopreservation Medium Complete (INCELL, MCPZF-100 plus 10% DMSO final). PBMC's were thawed (95% viability), washed, and seeded at 2×10^5 cells per well in culture medium (RPMI medium 1640; GIBCO) supplemented with 10% fetal calf serum, 100 U/ml penicillin, […] streptomycin, 2 mM L-glutamine, 100 μM non-essential amino acids, and 20 μM 2-ME) in 96-well flat-bottom tissue culture plates. Cells were pre-incubated with either anti-human CD32 (FcyRII) blocking antibody (per manufacturers instructions EASY SEP Human Biotin Selection Kit #18553, StemCell Technologies Vancouver, BC) or Fc-L10-ShK (100 nM-0.001 nM final) for 45 min. Fc-L10-ShK (100 nM-0.001 nM final) was then added to the cells containing anti-human CD32 blocking antibody while medium was added to the cells containing Fc-L10-ShK. Both sets were incubated for an additional 45 min before stimulating for 48 hr with aCD3/aCD28 (0.2 ng/ml and 100 ng/ml, respectively). Final assay volume was 200 ul. […] Cells were then harvested onto glass fiber filters and radioactivity was measured in a B-scintillation counter.

[12] = target: HEK 293 cells overexpressing human Kv1.3 (Homo sapiens, UniProt P22001); test: Immunohistochemistry binding to HEK 293 cells overexpressing human Kv1.3; settings: 5 μg/ml
HEK 293 cells overexpressing human Kv1.3, sequence (P22001 whole entry): as above
Protocol: Immunohistochemistry analysis of Fc-L10-ShK[1-35] binding to HEK 293 cells overexpressing human Kv1.3. HEK 293 cells overexpressing human Kv1.3 (HEK Kv1.3) were obtained from BioFocus plc (Cambridge, UK) and maintained per manufacturer's recommendation. The parental HEK 293 cell line was used as a control. Cells were plated on Poly-D-Lysine 24 well plates (#35-4414; Becton-Dickinson, Bedford, Mass.) and allowed to grow to approximately 70% confluence. HEK KV1.3 were plated at 0.5×10e5 cells/well in 1 ml/well of medium. HEK 293 cells were plated at a density of 1.5×10e5 cells/well in 1 ml/well of medium. Before staining, cells were fixed with formalin (Sigma HT50-1-1 Formalin solution, diluted 1:1 with PBS/0.5% BSA before use) by removing cell growth medium, adding 0.2 ml/well formalin solution and incubating at room temperature for ten minutes. Cells were stained by incubating with 0.2 ml/well of 5 μg/ml Fc-L10-ShK[1-35] in PBS/BSA for 30′ at room temperature. Fc-L10-ShK[1-35] was aspirated and then the cells were washed one time with PBS/0.5% BSA. Detection antibody (Goat F(ab)2 anti-human IgG-phycoerythrin; Southern Biotech Associates, Birmingham, Ala.) was added to the wells at 5 μg/ml in PBS/0.5% BSA and incubated for 30′ at room temperature. Wash cells once with PBS/0.5% BSA and examine using confocal microscopy (LSM 510 Meta Confocal Microscope; Carl Zeiss AG, Germany). […]

[13] = tested on: thapsigargin-induced IL-2 production in human whole blood

Compound	thapsigargin-induced upregulation of IL-2R on T cells (in words) [1]	thapsigargin-induced upregulation of CD40L on T cells (in words) [2]	inhibition of IFNg production (in words) [3]	average body weight lost [4] [g]	disease severity and survival (in words) [4]	onset of disease [4] [days]	inhibition of IFNγ production (in words) [5]	inhibition of IL-2 production (in words) [6]	thapsigargin-induced IFN-g production in human whole blood (in words) [7]	inhibition of IL-2 production (in words) [8]	time of significant suppression of Kv1.3 current (<70 POC) by 5% serum Test solutions [9] [h]	blocking activity against Kv1.1 (in words) (human Kv1.1)	difference in Kv1.3 potency compared to Fc-L10-OSK1 (human Kv1.3 channel) [fold]	fold less potent than the synthetic OSK1 toxin peptide (Kv1.3) (human Kv1.3 channel)	binding to fixed cells that overexpress Kv1.3 (ELISA) [10]	inhibition of T cell proliferation (in words) [11]	block of human Kv1.3 current (in words) (human Kv1.3 channel)	binding to Kv1.3 overexpressing HEK 293 cells (staining) [12]	thapsigargin-induced IL-2 production in human whole blood (in words) [13]
CC[C@H](C)[C@@H]1NC(=O)[C@@H](NC(=O)[C@H](CO)NC(=O)[C@@H](N)CCCNC(=N)N)CSSC[C@@H](C(=O)O)NC(=O)[C@H]([C@@H](C)O)NC(=O)CNC(=O)[C@@H]2CSSC[C@@H]3NC(=O)[C@H](CCC(N)=O)NC(=O)[C@H](Cc4ccccc4)NC(=O)[C@H](C)NC(=O)[C@H]([C@@H](C)O)NC(=O)[C@H](CSSC[C@H](NC(=O)[C@H](Cc4ccccc4)NC(=O)[C@H](CO)NC(=O)[C@H](CC(C)C)NC(=O)[C@H](CCCNC(=N)N)NC(=O)[C@H](Cc4ccc(O)cc4)NC(=O)[C@H](CCCCN)NC(=O)[C@H](CCSC)NC(=O)[C@H](CO)NC(=O)[C@H](Cc4cnc[nH]4)NC(=O)[C@H](CCCCN)NC3=O)C(=O)N[C@@H](CCCNC(=N)N)C(=O)N[C@@H](CCCCN)C(=O)N[C@@H]([C@@H](C)O)C(=O)N2)NC(=O)[C@H](CCCNC(=N)N)NC(=O)[C@H](CO)NC(=O)[C@H](CCCCN)NC(=O)[C@@H]2CCCN2C(=O)[C@H]([C@@H](C)CC)NC(=O)[C@H]([C@@H](C)O)NC(=O)[C@H](CC(=O)O)NC1=O [ShK, reference compound]	suppressed	suppressed	only partial inhibition	30	developed severe disease and died	4	only a partial inhibition	only partial inhibition	suppressed	only a partial inhibition	≤ 1								
Fc-L10-OSK1[E16K,K20D]: Fc-L10-OSK1 with E16K and K20D substitutions												removed the blocking activity against Kv1.1	1.3	approximately 6 fold					
Fc-L10-ShK[1-35]: Fc region of human IgG1 fused in-frame to L10 linker and a monomer of ShK[1-35]	suppressed	suppressed	nearly complete inhibition				complete inhibition of the response	nearly complete inhibition		complete inhibition of the response					dose-dependent increase in the peptibody binding to fixed cells that overexpress Kv1.3	potently inhibits proliferation of T cells in a dose-dependent manner	potently blocked human Kv1.3	binds to Kv1.3 overexpressing HEK 293 cells but shows little binding to untransfected cells	
IbTx: BKCa channel inhibitor iberiotoxin, purchased from Bachem (QFTDVDCSVSKECWSVCKDLFGVDRGKCMGKKCRCYQ; Definition of Artificial Sequence: Synthetic peptide) [reference compound]	no significant activity	no significant activity							no significant activity										no significant activity
